Measurements as given in ChEMBL document CHEMBL5550132, “Structure-activity relationship in NOD2 agonistic muramyl dipeptides” (Eur J Med Chem, 2024).
pEC50: −log10 of the molar value.

Key:
[1] = target: T1, Nuclear factor NF-kappa-B complex (Homo sapiens) (UniProt Q00653+P19838+Q04206); assay: Activation of NF-KappaB in HEK293T cells assessed as fold change; format: cell-based; settings: filed as activator
[2] = species on record: Cavia porcellus; assay: Induction of delayed type hypersensitivity in ABA-BSA immunized Hartley Guinea pigs assessed as reduction in skin lesions at 100 ug measured for 24 hrs; format: functional; settings: dose 100 µg
[3] = species on record: Cavia porcellus; assay: Induction of delayed type hypersensitivity in ABA-BSA immunized Hartley Guinea pigs assessed as reduction in skin lesions at 100 ug measured for 48 hrs; format: functional; settings: dose 100 µg
[4] = target: T1, Nuclear factor NF-kappa-B complex (Homo sapiens); assay: Activation of NF-KappaB (unknown origin) expressed in HEK293T cells assessed as fold change at 10 ng incubated for 12 hrs by Renilla luciferase assay; format: cell-based; settings: filed as activator
[5] = target: T1, Nuclear factor NF-kappa-B complex (Homo sapiens); assay: Activation of NF-KappaB (unknown origin) expressed in HEK293T cells assessed as fold change at 100 ng incubated for 12 hrs by Renilla luciferase assay; format: cell-based; settings: filed as activator
[6] = target: T1, Nuclear factor NF-kappa-B complex (Homo sapiens); assay: Activation of NF-KappaB (unknown origin) expressed in HEK293T cells assessed as fold change at 1000 ng incubated for 12 hrs by Renilla luciferase assay; format: cell-based; settings: filed as activator
[7] = target: T1, Nuclear factor NF-kappa-B complex (Homo sapiens); assay: Activation of NF-kappaB in HEK-Blue hNOD2 cells assessed as fold change at 10 nM incubated for 48 hrs by SEAP reporter assay; format: cell-based; settings: filed as activator
[8] = target: T1, Nuclear factor NF-kappa-B complex (Homo sapiens); assay: Activation of NF-kappaB in HEK-Blue hNOD2 cells assessed as fold change at 100 nM incubated for 48 hrs by SEAP reporter assay; format: cell-based; settings: filed as activator
[9] = target: T1, Nuclear factor NF-kappa-B complex (Homo sapiens); assay: Activation of NF-kappaB in HEK-Blue hNOD2 cells assessed as fold change at 1000 nM incubated for 48 hrs by SEAP reporter assay; format: cell-based; settings: filed as activator
[10] = target: Nucleotide-binding oligomerization domain-containing protein 2 (Homo sapiens, UniProt Q9HC29); assay: Agonist activity at NOD2 (unknown origin)
Sequence of Nucleotide-binding oligomerization domain-containing protein 2 (Q9HC29 whole entry, the tested form may be a part): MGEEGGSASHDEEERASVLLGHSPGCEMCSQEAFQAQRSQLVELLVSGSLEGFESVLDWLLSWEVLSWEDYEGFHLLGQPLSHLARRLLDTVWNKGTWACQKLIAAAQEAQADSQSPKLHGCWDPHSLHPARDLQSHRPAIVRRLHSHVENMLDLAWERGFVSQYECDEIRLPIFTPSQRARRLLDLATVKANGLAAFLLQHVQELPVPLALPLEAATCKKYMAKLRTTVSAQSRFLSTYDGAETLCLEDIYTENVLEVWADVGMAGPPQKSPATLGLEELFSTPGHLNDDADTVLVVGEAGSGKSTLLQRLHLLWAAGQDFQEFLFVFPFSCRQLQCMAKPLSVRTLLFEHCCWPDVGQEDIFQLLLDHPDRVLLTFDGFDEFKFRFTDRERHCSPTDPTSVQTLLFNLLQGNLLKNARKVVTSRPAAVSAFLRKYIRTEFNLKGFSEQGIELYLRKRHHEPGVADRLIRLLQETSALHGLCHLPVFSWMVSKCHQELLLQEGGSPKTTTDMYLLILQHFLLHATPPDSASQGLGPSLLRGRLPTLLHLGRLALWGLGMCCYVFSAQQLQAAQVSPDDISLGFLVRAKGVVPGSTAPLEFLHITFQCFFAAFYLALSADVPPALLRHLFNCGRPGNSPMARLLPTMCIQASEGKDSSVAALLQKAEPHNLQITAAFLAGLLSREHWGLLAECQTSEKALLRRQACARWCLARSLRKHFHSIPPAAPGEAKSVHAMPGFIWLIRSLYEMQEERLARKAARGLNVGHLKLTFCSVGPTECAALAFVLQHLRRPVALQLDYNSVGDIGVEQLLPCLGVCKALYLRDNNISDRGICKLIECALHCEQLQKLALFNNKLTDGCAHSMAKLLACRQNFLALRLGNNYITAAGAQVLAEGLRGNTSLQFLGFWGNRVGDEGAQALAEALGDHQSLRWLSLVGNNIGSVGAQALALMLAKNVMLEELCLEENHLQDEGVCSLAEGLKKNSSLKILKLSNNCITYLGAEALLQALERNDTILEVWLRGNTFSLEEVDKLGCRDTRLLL

T1 sequence (P19838 whole entry, looked up): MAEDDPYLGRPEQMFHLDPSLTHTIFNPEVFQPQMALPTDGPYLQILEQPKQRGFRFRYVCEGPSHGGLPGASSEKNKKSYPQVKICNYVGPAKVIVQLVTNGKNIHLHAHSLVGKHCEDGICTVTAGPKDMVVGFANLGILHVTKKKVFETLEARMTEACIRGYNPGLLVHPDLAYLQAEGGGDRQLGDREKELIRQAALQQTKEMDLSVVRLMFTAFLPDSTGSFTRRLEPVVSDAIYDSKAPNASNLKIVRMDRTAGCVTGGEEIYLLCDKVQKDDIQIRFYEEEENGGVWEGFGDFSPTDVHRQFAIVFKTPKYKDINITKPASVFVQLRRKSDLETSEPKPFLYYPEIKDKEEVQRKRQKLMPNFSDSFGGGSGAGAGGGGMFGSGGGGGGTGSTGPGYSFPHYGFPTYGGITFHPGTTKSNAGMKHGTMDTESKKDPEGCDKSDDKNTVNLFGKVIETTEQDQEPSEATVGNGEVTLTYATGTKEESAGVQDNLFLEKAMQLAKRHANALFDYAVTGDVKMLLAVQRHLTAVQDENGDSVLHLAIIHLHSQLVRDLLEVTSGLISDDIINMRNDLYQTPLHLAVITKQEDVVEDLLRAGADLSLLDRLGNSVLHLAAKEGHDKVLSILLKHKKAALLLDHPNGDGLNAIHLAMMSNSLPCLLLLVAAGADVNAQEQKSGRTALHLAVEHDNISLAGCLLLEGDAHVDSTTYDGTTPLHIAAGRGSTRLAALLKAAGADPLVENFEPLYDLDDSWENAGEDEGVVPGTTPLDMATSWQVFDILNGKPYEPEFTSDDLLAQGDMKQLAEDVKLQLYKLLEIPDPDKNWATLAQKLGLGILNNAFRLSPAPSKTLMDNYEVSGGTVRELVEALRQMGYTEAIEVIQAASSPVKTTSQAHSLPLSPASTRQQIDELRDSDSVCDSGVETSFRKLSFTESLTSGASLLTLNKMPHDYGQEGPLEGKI
T1 sequence (Q00653 whole entry, looked up): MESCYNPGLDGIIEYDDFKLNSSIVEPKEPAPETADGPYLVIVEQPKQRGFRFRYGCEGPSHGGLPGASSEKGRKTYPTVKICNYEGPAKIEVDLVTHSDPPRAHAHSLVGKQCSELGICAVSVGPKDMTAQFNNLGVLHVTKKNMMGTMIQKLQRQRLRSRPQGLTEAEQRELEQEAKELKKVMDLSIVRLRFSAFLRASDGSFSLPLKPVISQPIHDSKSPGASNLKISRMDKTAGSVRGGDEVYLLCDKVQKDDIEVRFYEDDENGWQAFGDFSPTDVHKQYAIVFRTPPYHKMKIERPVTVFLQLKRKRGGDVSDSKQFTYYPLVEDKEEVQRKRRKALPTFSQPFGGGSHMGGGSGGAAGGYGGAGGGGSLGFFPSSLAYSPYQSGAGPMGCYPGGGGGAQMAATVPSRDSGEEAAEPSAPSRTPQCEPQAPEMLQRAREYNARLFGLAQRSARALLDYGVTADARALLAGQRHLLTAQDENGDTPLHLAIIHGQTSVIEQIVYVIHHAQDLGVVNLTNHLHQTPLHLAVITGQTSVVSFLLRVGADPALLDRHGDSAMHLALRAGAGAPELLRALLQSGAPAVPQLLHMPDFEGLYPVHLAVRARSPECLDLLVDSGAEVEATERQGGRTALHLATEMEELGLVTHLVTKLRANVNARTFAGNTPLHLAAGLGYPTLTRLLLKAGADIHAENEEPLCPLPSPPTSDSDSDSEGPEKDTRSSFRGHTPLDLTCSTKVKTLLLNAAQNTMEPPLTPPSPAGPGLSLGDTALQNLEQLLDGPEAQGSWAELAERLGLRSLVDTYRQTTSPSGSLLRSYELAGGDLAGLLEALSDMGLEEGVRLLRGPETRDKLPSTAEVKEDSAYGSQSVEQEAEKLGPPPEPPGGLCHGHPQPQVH
T1 sequence (Q04206 whole entry, looked up): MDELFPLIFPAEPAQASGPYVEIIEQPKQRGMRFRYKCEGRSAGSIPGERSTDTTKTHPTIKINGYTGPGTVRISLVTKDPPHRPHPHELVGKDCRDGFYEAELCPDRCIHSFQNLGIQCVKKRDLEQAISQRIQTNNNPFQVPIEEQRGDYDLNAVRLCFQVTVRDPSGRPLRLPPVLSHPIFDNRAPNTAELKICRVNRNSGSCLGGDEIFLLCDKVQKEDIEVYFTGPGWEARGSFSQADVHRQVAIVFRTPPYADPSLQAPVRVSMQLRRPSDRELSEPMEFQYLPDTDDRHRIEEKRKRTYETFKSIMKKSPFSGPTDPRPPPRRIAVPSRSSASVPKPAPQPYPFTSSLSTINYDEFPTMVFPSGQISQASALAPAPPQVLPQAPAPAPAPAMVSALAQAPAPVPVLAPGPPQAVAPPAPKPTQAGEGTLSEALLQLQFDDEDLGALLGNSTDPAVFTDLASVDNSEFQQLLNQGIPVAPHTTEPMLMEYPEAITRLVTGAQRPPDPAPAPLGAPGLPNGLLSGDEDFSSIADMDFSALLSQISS

Row | SMILES | fold change (FC) [1] | fold change (FC) [4] | fold change (FC) [5] | fold change (FC) [6] | further results
1 | CC(=O)N[C@@H]1[C@@H](O[C@H](C)C(=O)N[C@@H](C)C(=O)N[C@H](CCC(=O)O)C(N)=O)[C@H](O)[C@@H](CN)O[C@H]1O | 9.15 | – | – | – | Activity [2]: 17.3 mm; Activity [3]: 10.9 mm
2 | CC(=O)N[C@@H]1[C@@H](O[C@H](C)C(=O)N(C)[C@H](C)C(=O)N[C@H](CCC(=O)O)C(N)=O)[C@H](O)[C@@H](CO)O[C@H]1O | – | 1.1 | 1.3 | 1.05 | –
3 | CC(=O)N[C@@H]1[C@@H](O[C@H](C)C(=O)N[C@@H](C)C(=O)N[C@@H](CCC(=O)O)C(N)=O)[C@H](O)[C@@H](CNC(=O)CCSSCCNC(=O)CCCC[C@@H]2SC[C@@H]3NC(=O)N[C@@H]32)O[C@H]1O | 0.9 | – | – | – | –
4 | CC(=O)N[C@@H]1[C@@H](O[C@H](C)C(=O)NCC(=O)N[C@H](CCC(=O)O)C(N)=O)[C@H](O)[C@@H](CO)O[C@H]1O | – | 1.3 | 2.8 | 9.8 | –
5 | CC(=O)N[C@@H]1[C@@H](O[C@H](C)C(=O)N2CCC[C@H]2C(=O)N[C@H](CCC(=O)O)C(N)=O)[C@H](O)[C@@H](CO)O[C@H]1O | – | 1.4 | 1.3 | 1.5 | –
6 | CC(=O)N[C@@H]1[C@@H](O[C@H](C)C(=O)N(C)[C@@H](C)C(=O)N[C@H](CCC(=O)O)C(N)=O)[C@H](O)[C@@H](CO)O[C@H]1O | – | 1.5 | 1.1 | 3 | –
7 | CC(=O)N[C@@H]1[C@@H](O[C@H](C)C(=O)N[C@@H](C)C(=O)N[C@H](CCC(=O)O)C(N)=O)[C@H](n2cc(CNC(=O)Cc3ccc(C(F)(F)F)cc3)nn2)[C@@H](CO)O[C@H]1O | – | – | – | – | fold change (FC) [7]: 1.15; fold change (FC) [8]: 1.1; fold change (FC) [9]: 1.35
8 | CC(=O)N[C@@H]1[C@@H](O[C@H](C)C(=O)N[C@@H](C)C(=O)N[C@@H](CCC(=O)O)C(N)=O)[C@H](O)[C@@H](CN)O[C@H]1O | 1.1 | – | – | – | –
9 | CC(=O)N[C@@H]1[C@@H](O[C@H](C)C(=O)N[C@@H](C)C(=O)N[C@H](CCC(=O)O)C(N)=O)[C@H](O)[C@@H](CNC(=O)CCOCCOCCOCCOCCNC(=O)CCCC[C@@H]2SC[C@@H]3NC(=O)N[C@@H]32)O[C@H]1O | 9.45 | – | – | – | –
10 | CC(=O)N[C@@H]1[C@@H](O[C@H](C)C(=O)N[C@H](C)C(=O)N[C@H](CCC(=O)O)C(N)=O)[C@H](O)[C@@H](CO)O[C@H]1O | – | 1.3 | 1 | 1.6 | –
11 | CC(=O)N[C@@H]1[C@@H](O[C@H](C)C(=O)N[C@@H](C)C(=O)N[C@@H](CCC(=O)O)C(N)=O)[C@H](O)[C@@H](CNC(=O)CCOCCOCCOCCOCCNC(=O)CCCC[C@@H]2SC[C@@H]3NC(=O)N[C@@H]32)O[C@H]1O | 1.2 | – | – | – | –
12 | CC(=O)N[C@@H]1[C@@H](O[C@H](C)C(=O)N[C@@H](C)C(=O)N[C@H](CCC(=O)O)C(N)=O)[C@H](O)[C@@H](CNC(=O)CCSSCCNC(=O)CCCC[C@@H]2SC[C@@H]3NC(=O)N[C@@H]32)O[C@H]1O | 7.05 | – | – | – | –
13 | CC(=O)N[C@@H]1[C@@H](O[C@H](C)C(=O)N[C@H](CO)C(=O)N[C@H](CCC(=O)O)C(N)=O)[C@H](O)[C@@H](CO)O[C@H]1O | – | 1.7 | 1.05 | 3.4 | –
14 | CC(=O)N[C@@H]1[C@@H](O[C@H](C)C(=O)N[C@@H](C)C(=O)N[C@@H](CCC(=O)O)C(N)=O)[C@H](O)[C@@H](CNC(=O)CCOCCOCCOCCOCCOCCOCCOCCOCCOCCOCCOCCOCCNC(=O)CCCC[C@@H]2SC[C@@H]3NC(=O)N[C@@H]32)O[C@H]1O | 1.05 | – | – | – | –
15 | CC(=O)N[C@@H]1[C@@H](O[C@H](C)C(=O)N[C@@H](C(=O)N[C@H](CCC(=O)O)C(N)=O)C(C)C)[C@H](O)[C@@H](CO)O[C@H]1O | – | 1 | 1.05 | 1.1 | –
16 | CC(=O)N[C@@H]1[C@@H](O[C@H](C)C(=O)N[C@@H](C)C(=O)N[C@H](CCC(=O)O)C(N)=O)[C@H](O)[C@@H](CNC(=O)CCOCCOCCOCCOCCOCCOCCOCCOCCOCCOCCOCCOCCNC(=O)CCCC[C@@H]2SC[C@@H]3NC(=O)N[C@@H]32)O[C@H]1O | 3 | – | – | – | –
17 | CC(=O)N[C@H]1C(O)O[C@H](CO)[C@@H](O)[C@@H]1O[C@H](C)C(=O)N[C@@H](C)C(=O)N[C@H](CCC(=O)O)C(N)=O (stereo partly specified) [MURAMYL DIPEPTIDE] | – | – | – | – | pEC50 [10]: 6.69; fold change (FC) [7]: 1.7; fold change (FC) [8]: 4; fold change (FC) [9]: 6.55; Activity [2]: 21 mm; Activity [3]: 19 mm
18 | CC(=O)N[C@@H]1[C@@H](O[C@H](C)C(=O)N[C@H](C(=O)N[C@H](CCC(=O)O)C(N)=O)[C@@H](C)O)[C@H](O)[C@@H](CO)O[C@H]1O | – | 1.8 | 1.15 | 5 | –
19 | CC(=O)N[C@H]1[C@H](OCc2ccccc2)O[C@H](CO)[C@@H](N)[C@@H]1O[C@H](C)C(=O)N[C@@H](C)C(=O)N[C@H](CCC(=O)O)C(N)=O | – | – | – | – | fold change (FC) [7]: 1.1; fold change (FC) [8]: 1.2; fold change (FC) [9]: 1.35
